Measurements reported in patent US20100266691A1, “Agents and Methods to Stimulate Bone Healing” (BATTELLE MEMORIAL INSTITUTE, priority 2009, published 2010).

Tests used:
[1] = test system: Mouse MC3T3-E1 pre-osteoblastic cells; assay: pre-osteoblast chemotaxis trans-well assay; type: cell-based; settings: for chemotactic effect of LPA in the presence of inhibitor: inhibitor added together with LPA
Protocol: Mouse MC3T3-E1 pre-osteoblastic cells were seeded into the upper wells of opaque trans-well chambers that had 8.0-micron pores. LPA was added to the growth medium in the lower chamber. The number of cells that migrated through the pores and attached to the underside of the microporous membrane served as a measure of chemotaxis (chemically directed cell migration). Cells were fluorescently labeled with calcein to allow visualization on the undersides of the opaque chambers. Utilizing this assay it was determined that LPA elicited a 6.5 fold increase in pre-osteoblast when compared to cells under control conditions (growth medium in the absence of LPA).

[2] = test system: drill-hole defects in the cortex of rat femurs; assay: rat femur drill-hole defect healing with PLGA implants (microCT); type: in vivo; settings: PLGA+12.5 μg LPA vs PLGA+2.0 μg rhBMP2; six weeks post-treatment
Excerpt: Defect regions (arrows) are enlarged on the right; dotted lines depict the original defect boarders.
The inventor has shown, using rat models, that LPA enhances skeletal regeneration in vivo. The bone growth stimulatory effects of LPA were compared to those of bone morphogenetic protein 2 (BMP-2), which is an FDA approved osteoinductive additive to bone implants. Referring to FIG. 4, drill-hole defects (3-mm diameter) were introduced into the cortex of rat femurs. Implants were fabricated utilizing poly(DL-lactic-co-glycolic acid) copolymers) (PLGA). The femurs were then implanted with either LPA or a therapeutic amount (2 μg) of BMP-2 and were compared to a non-treated control. Bone healing was measured as the rate of closure of the defect as visualized in living animals by micro-computed tomography (microTC). Implants were designed as follows: PLGA alone; PLGA+12.5 μg LPA; PLGA+2.0 μg rhBMP2.
One preferred combination of the invention is LPA and BMP-2. Utilizing a rat model, the affects of LPA and LPA with BMP-2 were studied. Rat femurs were drilled to introduce a defect as set forth for FIG. 4. Implants were prepared as described above with the addition of an implant having PLGA+2.0 μg rhBMP2+12.5 μg LPA. Each corresponding drill drill-hole was implanted with: A) nothing (control); B) LPA; C) BMP-2 or D) LPA+BMP-2.

MC3T3-E1 cells = assay: global gene expression profiling (Affymetrix mouse whole genome microarrays); type: cell-based; settings: LPA 1.0 μM
Protocol: LPA also modulates the expression of a large set of pre-osteoblast genes linked to development (FIG. 2). MC3T3-E1 cells were grown in the presence or absence of a physiological level of LPA (1.0 μM). After growth of the cells, total RNA was isolated for use in global gene expression profiling. Gene expression was measured utilizing Affymetrix mouse whole genome microarrays. Data were analyzed using a suite of bioinformatics software. […] As shown, genes involved in cell development are the most statistically significant group affected by LPA.

[3] = test system: Mouse MLO-Y4 osteocyte-like cells; assay: osteocyte dendrite outgrowth trans-well assay; type: cell-based
Protocol: Data are normalized to untreated control cells.
Among the effects of LPA on pre-osteoblasts is the induction of membrane extensions that resemble osteocyte dendrites. An assay was developed to study the ability of LPA to stimulate the outgrowth of dendritic processes from osteocytes in vitro, FIG. 3. Mouse MLO-Y4 osteocyte-like cells were seeded in the upper wells of opaque trans-well chambers having 1.0-micron pores which prevent the passage of whole cells but allow penetration by membrane extensions. Cells were fluorescently labeled with calcein to allow visualization of dendrites that were extended onto the undersides of the opaque chambers. It was determined that the presence of LPA in the lower chamber lead to a 7-fold increase in osteocyte dendrite outgrowth.
It is postulated that LPA enhances dendrite outgrowth in vivo, which can re-establish the osteocyte mechanosensory network during the regeneration of damaged bone.

| Compound | chemotactic effect of LPA in the presence of inhibitor [1] | bone healing (closure of the defect) compared with BMP-2 [2] | increase in pre-osteoblast chemotaxis compared to cells under control conditions ([1]; LPA in lower chamber, 8.0-micron pores, control = growth medium in the absence of LPA) | number of genes regulated in LPA-treated cells (MC3T3-E1 cells) | increase in osteocyte dendrite outgrowth ([3]; LPA in lower chamber, 1.0-micron pores, normalized to untreated control cells) | stimulation of dendritogenesis ([3]; each concentration tested) |
| --- | --- | --- | --- | --- | --- | --- |
| Cc1noc(-c2ccc(CSCCC(=O)O)cc2)c1NC(=O)OC(C)c1ccccc1Cl (stereo not shown) [Ki16425] | decreased chemotactic effect | – | – | – | – | – |
| CCCCCCCC/C=C\CCCCCCCC(=O)OC[C@@H](O)COP(=O)([O-])O.[Na+] [LPA, lysophosphatidic acid] | – | stimulatory properties of LPA exceed those of BMP-2 | 6.5 fold | 513 genes | 7 fold | significantly stimulated dendritogenesis |
| pertussis toxin | decreased chemotactic effect | – | – | – | – | – |
